Results reported in US9095573B2, “Method of biasing implanted human neural stem cells away from differentiation into glial cells by (+)phenserine to modulate the concentration of soluble βAPP in tissue or CSF” (priority 2005, dated 2015).

Columns and labels:
[1] = system: cholinesterase; conditions: Greig et al., U.S. Patent Pub. 2004/0024043 and 2004/0138282; cited from earlier work
[2] = system: APP mRNA; test: Real time RT-PCR analysis of APP gene expression in cortical and hippocampal tissues; format: in vivo; conditions: both APP23 and wild-type mice
Procedure: (§1) Animals were subsequently divided into two groups that were either sacrificed following 14 days treatment (n=17 APP23 and n=13 wild-type, respectively) or received transplantation of HSNC into the lateral ventricle (n=13 APP23 mice and n=12 wild-type, respectively). […] Brains were removed, dissected into the hippocampus and cortex, and tissue samples were maintained on dry ice and stored at −80° C. until Western blotting and PCR experiments were performed. For the group of transplanted animals, these were transcardially perfused with PBS and 4% paraformaldehyde (pH 7.4). Brains were removed and post-fixed for 8-12 h in 4% paraformaldehyde, and cryoprotected in 20% sucrose-PBS overnight. […]
Total RNA from hippocampal and cortical tissues from each animal treated with either (+)-phenserine or saline was isolated with Trizol reagent (Invitrogen) according to the manufacturer's protocol. […] Relative quantification with Real-time PCR was determined using the MyiQ Real-Time PCR Detection System Software (Bio-Rad), and reactions were performed in a thermal iCycler using the Bio-Rad MyiQ IQ SYBR Green Supermix (Bio-Rad) according to the following conditions; denaturation of cDNA for 5 min at 94° C.; amplification (40 cycles) for 30 sec at 94° C., annealing at 56° C. for 30 sec, and extension at 72° C. for 30 sec, with a final extension at 72° C. for 5 min. […]

[3] = system: transplanted human neural stem cells (HNSCs); test: Glial differentiation of transplanted HNSCs (BrdU+/GFAP+ cell counts, fluorescent immunohistochemistry); format: in vivo, APP23 and wild-type mice; conditions: hippocampus of wild-type mice; 6 weeks after HNSC transplantation; 25 mg/kg
Procedure: (§2) HNSCs originally isolated from fetal cortical tissue were purchased from BioWhittaker (Walkersville, Md.) and the cells were expanded and passaged in a serum-free culture medium, as described in detail previously (Brannen and Sugaya, 2000). Briefly, HNSCs were cultured in 20 ml serum-free supplemented growth medium consisting of Ham's F12/DMEM (Gibco, Burlington, ON), EGF (20 ng/ml, R & D Systems), FGF (20 ng/ml, R & D Systems, Minneapolis, Minn.), B27 (1:50, Gibco), heparin (5 μg/ml, Sigma, St. Louis, Mo.) and antibiotic-antimycotic mixure (1:100, Gibco) at 37° C. in a 5% humidified incubation chamber (Brannen and Sugaya, 2000). Prior to transplantation, HNSCs were incubated with 3 μM bromo-deoxyuridine (BrdU, Sigma) for 48 hr to label cell nuclei to distinguish them from the host cells.
as §1, with “7.4).” for “7.4). Brains were removed and post-fixed for 8-12 h in 4% paraformaldehyde, and cryoprotected in 20% sucrose-PBS overnight.”

[4] = system: transplanted human neural stem cells (HNSCs); test: Neuronal differentiation of transplanted HNSCs (BrdU+/β-III tubulin+ cell counts, fluorescent immunohistochemistry); format: in vivo, APP23 and wild-type mice; conditions: wild-type mice, CA1 hippocampal region only; p<0.05; 25 mg/kg
Procedure: as §2
as §1, with “7.4).” for “7.4). Brains were removed and post-fixed for 8-12 h in 4% paraformaldehyde, and cryoprotected in 20% sucrose-PBS overnight.”

## (+)-phenserine
[1]
  cholinesterase activity: lacks cholinesterase activity
[2]
  change in APP gene expression: no significant changes
[3]
  difference in number of BrdU+/GFAP+ double immuno-positive cells: No significant differences
[4]
  increase in number of BrdU+/β-III tubulin+ cells: 40%
